Measurements reported in the supplement of paper PMC11061612.

Key:
Test in all cases: Bliss excess, mean over the matrix (fraction); higher = more synergy
[1] = test system: ATN-1 (T-Lymphoblastic Leukemia)
In short: (§1)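 After 24 hours at 37°C and 5% CO2 in 1536-well plates, cells in DMEM/F12 or RPMI plus 10% FBS received two-drug dose matrices for 72 hours. Viability came from CellTiter-Glo 2.0 luminescence and was scaled as inhibition, anchored at 0 by vehicle wells and at 1 by blank wells. Combination Emax is taken as the second-highest inhibition in the matrix, and Bliss excess as the observed combination effect less EA + EB − EA·EB, with EA and EB the single-agent effects.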

[2] = test system: C2BBe1 (Colorectal Carcinoma)
In short: as §1

[3] = test system: C32 (Melanoma)
In short: as §1

[4] = test system: GRANTA-519 (B-Cell Non-Hodgkin's Lymphoma)
In short: as §1

[5] = test system: HT-144 (Melanoma)
In short: as §1

[6] = test system: HT-3 (Cervical Carcinoma)
In short: as §1

[7] = test system: IGROV-1 (Ovarian Carcinoma)
In short: as §1

[8] = test system: JJN-3 (Plasma Cell Myeloma)
In short: as §1

[9] = test system: JURL-MK1 (Chronic Myelogenous Leukemia)
In short: as §1

[10] = test system: RS4-11 (B-Lymphoblastic Leukemia)
In short: as §1

[11] = test system: SK-N-DZ (Neuroblastoma)
In short: as §1

[12] = test system: SNU-1 (Gastric Carcinoma)
In short: as §1

[13] = test system: SUP-HD1 (Hodgkin's Lymphoma)
In short: as §1

[14] = test system: BC-1 (B-Cell Non-Hodgkin's Lymphoma)
In short: as §1

[15] = test system: L-363 (Plasma Cell Myeloma)
In short: as §1

[16] = test system: NCI-H1648 (Lung Adenocarcinoma)
In short: as §1

[17] = test system: NCI-H2009 (Lung Adenocarcinoma)
In short: as §1

[18] = test system: NTERA-2-cl-D1 (Other Solid Carcinomas)
In short: as §1

[19] = test system: OVKATE (Ovarian Carcinoma)
In short: as §1

[20] = test system: SW1463 (Colorectal Carcinoma)
In short: as §1

| SMILES | Bliss excess [1] | Bliss excess [2] | Bliss excess [3] | Bliss excess [4] | Bliss excess [5] | Bliss excess [6] | Bliss excess [7] | Bliss excess [8] | Bliss excess [9] | Bliss excess [10] | Bliss excess [11] | Bliss excess [12] | Bliss excess [13] | Bliss excess [14] | Bliss excess [15] | Bliss excess [16] | Bliss excess [17] | Bliss excess [18] | Bliss excess [19] | Bliss excess [20] |
| --- | --- | --- | --- | --- | --- | --- | --- | --- | --- | --- | --- | --- | --- | --- | --- | --- | --- | --- | --- | --- |
| CC(=O)c1c(C)c2cnc(Nc3ccc(N4CCNCC4)cn3)nc2n(C2CCCC2)c1=O [Palbociclib] + CN(CC[C@H](CSC1=CC=CC=C1)NC2=C(C=C(C=C2)S(=O)(=O)NC(=O)C3=CC=C(C=C3)N4CCC(CC4)[C@H](C5=CC=CC=C5C6=CC=C(C=C6)Cl)O)S(=O)(=O)C(F)(F)F)CCO [AZD4320] (first compound max 10 µM, 7x7, partner max 1 µM) | -0.0253 | -0.0652 | -0.0713 | 0.0102 | -0.0774 | -0.0431 | -0.0143 | -0.014 | -0.075 | -0.0308 | 0.0814 | -0.066 | -0.0407 |  |  |  |  |  |  |  |
| CN(C)CCCOc1ccc(-c2ccc3ncc4c(c3c2)n(C2CCOCC2)c(=O)n4C)cn1 [AZD0156] + C[C@@H]1COCCN1C2=NC(=NC(=C2)C3(CC3)[S@](=N)(=O)C)C4=C5C=CNC5=NC=C4 [AZD6738] (first compound max 1 µM, 7x7, partner max 10 µM) | -0.0052 | -0.0234 | -0.0323 | -0.0335 | -0.0484 | 0.0031 | -0.0187 | 0.161 | 0.0269 | -0.0192 | 0.031 | 0.0461 | -0.0232 | -0.0305 | 0.0767 | 0.005 | -0.0045 | -0.0472 | -0.0189 | -0.0057 |
| C[C@@H]1COCCN1c1cc(C2([S@](C)(=N)=O)CC2)nc(-c2ccnc3[nH]ccc23)n1 [AZD6738] + O=C(c1cc(Cc2n[nH]c(=O)c3ccccc23)ccc1F)N1CCN(C(=O)C2CC2)CC1 [Olaparib] (first compound max 10 µM, 7x7, partner max 10 µM) | 0.0169 | 0.0009 | 0.0019 | -0.0308 | 0.0461 | 0.0399 | -0.0169 | -0.0548 | -0.021 | -0.0365 | -0.0019 | -0.0358 | -0.054 | -0.0041 | -0.0892 | 0.0086 | 0.0046 | 0.0898 | -0.0115 |  |
| CC(=O)c1c(C)c2cnc(Nc3ccc(N4CCNCC4)cn3)nc2n(C2CCCC2)c1=O [Palbociclib] + Cc1c2c(nn1C)CSCc1cc(n(C)n1)CSc1cc(c3ccccc3c1)OCCCc1c(C(=O)O)n(C)c3c-2c(Cl)ccc13 [AZD5991] (first compound max 10 µM, 7x7, partner max 1 µM) | -0.0498 | -0.0782 | -0.0069 | 0.0039 | -0.0757 | -0.0751 | 0.0122 | -0.0434 | -0.112 | -0.0519 | 0.0655 | -0.0691 | -0.0704 | -0.0028 | -0.0147 | -0.0084 | -0.0567 | 0.019 | -0.0382 | -0.0666 |
| CC1(C)CCC(CN2CCN(c3ccc(C(=O)NS(=O)(=O)c4ccc(NCC5CCOCC5)c([N+](=O)[O-])c4)c(Oc4cnc5[nH]ccc5c4)c3)CC2)=C(c2ccc(Cl)cc2)C1 [Venetoclax] + COc1cc(Nc2ncc3c(n2)-c2ccc(Cl)cc2C(c2c(F)cccc2OC)=NC3)ccc1C(=O)O [Alisertib] (first compound max 1 µM, 7x7, partner max 10 µM) | -0.013 | -0.0271 | 0.0269 | 0.438 | 0.0089 | -0.0262 | -0.0588 | 0.45 | -0.0542 | 0.0168 | 0.077 | -0.0103 | 0.0776 | -0.0492 | -0.0115 | 0.0579 | 0.0023 | 0.0304 | -0.0154 | 0.017 |
| Cc1c2c(nn1C)CSCc1cc(n(C)n1)CSc1cc(c3ccccc3c1)OCCCc1c(C(=O)O)n(C)c3c-2c(Cl)ccc13 [AZD5991] + C1CN(CCC1(C(=O)N[C@@H](CCO)C2=CC=C(C=C2)Cl)N)C3=NC=NC4=C3C=CN4 [Capivasertib] (first compound max 1 µM, 7x7, partner max 3 µM) | 0.0208 | -0.0214 | 0.0009 | -0.0295 | 0.0582 | 0.0198 | 0.0239 | -0.041 | 0.0028 | -0.0148 | -0.001 | -0.0176 | -0.0833 | 0.0256 | 0.0476 | -0.0326 | -0.0207 |  | -0.0461 | -0.0085 |
| CN(C)CCCOc1ccc(-c2ccc3ncc4c(c3c2)n(C2CCOCC2)c(=O)n4C)cn1 [AZD0156] + CCN(CCO)CCCOc1ccc2c(Nc3cc(CC(=O)Nc4cccc(F)c4)[nH]n3)ncnc2c1 [AZD2811] (first compound max 1 µM, 7x7, partner max 1 µM) | -0.0742 | -0.0183 | -0.0213 | 0.0447 | 0.0066 | -0.039 | -0.0527 | 0.09 | 0.0538 | 0.0512 | 0.0526 | 0.093 | 0.0327 | 0.0234 | 0.0096 | -0.0327 | -0.0224 | 0.0219 | -0.0648 | -0.0322 |
